Measured values from ChEMBL document CHEMBL1122746, “Tumor inhibitory triazenes. 3. Dealkylation within an homologous series and its relation to antitumor activity” (J Med Chem, 1984).

What was measured:
[1] = Partition coefficient (logP); assay type: physicochemical; settings: octanol/water
[2] = system: Mus musculus; assay: Antitumor activity is evaluated as the percent increase in lifespan of TLX/5 tumor bearing animals at 200 mg/kg, daily x 5; assay type: functional
[3] = system: Mus musculus; assay: Antitumor activity is evaluated as the percent increase in lifespan of TLX/5 tumor bearing animals at 50 mg/kg, daily x 5; assay type: functional
[4] = system: Mus musculus; assay: Antitumor activity is evaluated as the percent increase in lifespan of TLX/5 tumor bearing animals at 100 mg/kg, daily x 5; assay type: functional
[5] = system: Mus musculus; assay: Antitumor activity is evaluated as the percent increase in lifespan of TLX/5 tumor bearing animals at 25 mg/kg, daily x 5; assay type: functional
[6] = system: Mus musculus; assay: Antitumor activity is evaluated as the percent increase in lifespan of TLX/5 tumor bearing animals at 12.5 mg/kg, daily x 5; assay type: functional
[7] = organism: Mus musculus; assay: Compound is evaluated for maximum percentage of increase in life span (ILS) in tumor bearing mice
[8] = system: Mus musculus; assay: Antitumor activity is evaluated as the percent increase in lifespan of TLX/5 tumor bearing animals at 400 mg/kg, daily x 5; assay type: functional
[9] = organism: Mus musculus; assay: (§1) Compound is evaluated in vitro for percent dealkylation by mouse liver microsomes; assay type: functional
[10] = organism: Mus musculus; assay: Compound is evaluated in vitro for percent demethylation by mouse liver microsomes; assay type: functional
[11] = organism: Mus musculus; assay: (§2) Compound is evaluated in vitro for percent metabolism by mouse liver microsomes; assay type: functional
[12] = organism: Mus musculus; assay: as §1; assay type: functional; design: concentration or dose not given beside the values
[13] = organism: Mus musculus; assay: as §2; assay type: functional; design: concentration or dose not given beside the values

SMILES	logP ([1]; read-out: logP)	Increase [2]	Increase [3]	Increase [4]	Increase [5]	Increase [6]	max % ILS per µmol/kg [7]	Increase [8]	Activity [9]	Activity [10]	Activity [11]	Activity [12]	Activity [13]	logP [1]
CCCCN(C)/N=N/c1ccc(C(=O)O)cc1	0.97													
CN(/N=N/c1ccc(C(N)=O)cc1)C(C)(C)C		0%	-2%	0%	-4%	4%								
CCCCCCCCCCCCN(C)/N=N/c1ccc(C(N)=O)cc1		13%	3%	-1%	3%	1%	0.023 %·kg/µmol	9%						
CCCCCCCN(C)/N=N/c1ccc(C(N)=O)cc1		15%	15%	65%	6%	2%	0.18 %·kg/µmol	-20%	12%	11%	23%			
CCCCCN(C)/N=N/c1ccc(C(=O)O)cc1	1.49													
CCC(C)CN(C)/N=N/c1ccc(C(=O)O)cc1 (stereo not drawn)	1.33													
CCCCCCN(C)/N=N/c1ccc(C(=O)O)cc1	1.95													
CN(O)/N=N/c1ccc(C(N)=O)cc1		37%	19%	19%			0.036 %·kg/µmol	55%						
CON(C)/N=N/c1ccc(C(N)=O)cc1		-7%	-5%	-3%	-3%	-3%		-3%						
CCN(C)/N=N/c1ccc(C(N)=O)cc1	1.7	-31%	100%	76%	84%	7%	0.693 %·kg/µmol	-49%		28.2%		33.7%	61.8%	
CN(C)/N=N/c1ccc(C(=O)O)cc1														-0.44
CCCN(C)/N=N/c1ccc(C(=O)O)cc1	0.46													
CCCCCCCN(C)/N=N/c1ccc(C(=O)O)cc1	2.58													
CCCCCCCCN(C)/N=N/c1ccc(C(N)=O)cc1	4.7	112%	4%	19%	4%	-2%	0.163 %·kg/µmol	56%		11.5%		8%	19.5%	
C#CCN(C)/N=N/c1ccc(C(=O)O)cc1	0													
CC(C)N(C)/N=N/c1ccc(C(N)=O)cc1	2	-10%	45%	41%	52%	21%	0.458 %·kg/µmol	-60%						
CN(CCO)/N=N/c1ccc(C(N)=O)cc1		42%	5%	7%	0%	1%	0.047 %·kg/µmol	38%						
CCCCN(C)/N=N/c1ccc(C(N)=O)cc1	2.46	-12%	91%	83%	23%	18%	0.426 %·kg/µmol	-51%		21.5%		33.5%	55%	
CCN(C)/N=N/c1ccc(C(=O)O)cc1	0.04													
CN(Cc1ccccc1)/N=N/c1ccc(C(N)=O)cc1		86%	3%	9%	-1%	-3%	0.145 %·kg/µmol	-36%						
CC(C)N(C)/N=N/c1ccc(C(=O)O)cc1	0.34													
CCCCCCCCN(C)/N=N/c1ccc(C(=O)O)cc1	2.77													
C=CCN(C)/N=N/c1ccc(C(=O)O)cc1	0.32													
CCCN(C)/N=N/c1ccc(C(N)=O)cc1		20%	60%	41%	113%	7%	0.996 %·kg/µmol	-45%		25.3%		33%	58.3%	
CN(C)/N=N/c1ccc(C(N)=O)cc1		-7%	65%	51%	47%	94%	1.45 %·kg/µmol	-26%		55.5%		1.8%	57.3%	
CCCCCCN(C)/N=N/c1ccc(C(N)=O)cc1		56%	11%	83%	9%	4%	0.218 %·kg/µmol	30%		13%		14%	27%	
CCN(CC)/N=N/c1ccc(C(N)=O)cc1										0%		53.3%	53.3%	
CCCCCN(C)/N=N/c1ccc(C(N)=O)cc1		-28%	79%	71%	7%	3%	0.392 %·kg/µmol	-51%		18%		23.5%	41.5%	
